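Step 1: Grow cells in 96-well plates. Step 2: Expose to compound for 48 hours at 5 concentrations. Step 3: Interpolate endpoints linearly; if unreached, use highest concentration. GI50: concentration for 50% inhibition of growth.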 Calls of active or inactive are those of the source. Rule as the data show it: active = GI50 up to about 1.1 µM and inactive = higher. Some results are limits rather than exact numbers.

The results in this text go back to ChEMBL document CHEMBL1201862, “PubChem BioAssay data set” (2004).

Some test systems named below: CCRF-CEM; SK-MEL-2; OVCAR-3; SNB-19; RPMI-8226; HCC 2998; SF-268; UACC-62; 786-0; HCT-116; HCT-15; NCI/ADR-RES; NCI-H226; MDA-MB-435; SF-295; SK-MEL-5; IGROV-1; ACHN; U-251; HOP-92.
Assay in all cases: growth of human tumour cells (NCI), 48 h

As for `Cc1cc(S(=O)(=O)Nc2nc3ccccc3nc2-c2cccc([N+](=O)[O-])c2)c(S)cc1Cl`, the GI50 in the assay on CCRF-CEM was 23.5 µM (inactive); in the assay on SK-MEL-2, 21.9 µM (inactive); in the assay with OVCAR-3 it was 15.9 µM (inactive); with SNB-19 it was 16.5 µM (inactive); with RPMI-8226, 19.2 µM (inactive); in the assay with HCC 2998 it was 18.8 µM (inactive). Further, the GI50 in the assay with SF-268 is 25.9 µM (inactive); with UACC-62 it was 12.3 µM (inactive); in the assay with 786-0 it was 23.8 µM (inactive); in the assay with HCT-116 it was 18.8 µM (inactive); in the assay on HCT-15, 43 µM; with NCI/ADR-RES, 19.9 µM (inactive). Also, the GI50 was 21.4 µM (inactive) with NCI-H226; 19.8 µM (inactive) in the assay with MDA-MB-435; 25.1 µM (inactive) in the assay with SF-295; 15 µM (inactive) in the assay with SK-MEL-5; 13.2 µM (inactive) in the assay on IGROV-1; 27.8 µM (inactive) in the assay with ACHN. Moreover, the GI50 in the assay on U-251 is 16.9 µM (inactive); in the assay on HOP-92, 17.9 µM (inactive).
Consider `CC(C)=CC[S+]([O-])c1ccccc1NC1=CC(=O)CC(C)(C)C1` (stereo unspecified), for which the GI50 in the assay on CCRF-CEM, in the assay with SK-MEL-2, with OVCAR-3, with SNB-19, in the assay on RPMI-8226 and with HCC 2998 was > 100 µM (inactive) throughout. Besides, the GI50 with SF-268 was > 100 µM (inactive); in the assay with UACC-62, > 100 µM (inactive); in the assay with 786-0, > 100 µM (inactive); in the assay on HCT-116, > 100 µM (inactive); in the assay with HCT-15, 8.3 µM; in the assay on NCI/ADR-RES it was > 100 µM (inactive). Besides, the GI50 with NCI-H226 is > 100 µM (inactive); with MDA-MB-435, > 100 µM (inactive); with SK-MEL-5, > 100 µM (inactive); with IGROV-1 it was > 100 µM (inactive); with ACHN, > 100 µM (inactive); in the assay with U-251, 0.223 µM (active). Besides, the GI50 in the assay with HOP-92 was > 100 µM (inactive).
`O=c1oc2ccc(Cl)cc2cc1-c1cn2cc(Cl)ccc2n1`: the GI50 with CCRF-CEM is > 28.8 µM (inactive); with SK-MEL-2, > 100 µM (inactive); with OVCAR-3 it was 5.3 µM (inactive); in the assay on RPMI-8226, > 100 µM (inactive); with HCC 2998, > 73.6 µM (inactive); with SF-268 it was > 80.9 µM (inactive). Besides, the GI50 with UACC-62 is 0.574 µM (active); in the assay on 786-0, > 42.4 µM (inactive); in the assay on HCT-116, 6.3 µM (inactive); with HCT-15, 2.36 µM; in the assay with NCI/ADR-RES, 11.4 µM (inactive); with NCI-H226 it was > 100 µM (inactive). The GI50 in the assay with MDA-MB-435 is 0.24 µM (active); with SF-295 it was 10.1 µM (inactive); with SK-MEL-5, > 100 µM (inactive); in the assay on IGROV-1, > 25.8 µM (inactive); in the assay with ACHN, > 100 µM (inactive); in the assay on U-251, > 49.3 µM (inactive). For the same compound, in the assay with HOP-92, the GI50 is > 100 µM (inactive).
On to `Cc1nc(O)nc(N/N=C/c2ccc(Cl)cc2)c1C(=O)NC(C)(CO)CO`, for which the GI50 in the assay on CCRF-CEM, in the assay with SK-MEL-2, in the assay on OVCAR-3, with SNB-19, in the assay with RPMI-8226 and with HCC 2998 was > 100 µM (inactive) in each case. For the same compound, the GI50 with SF-268 is > 100 µM (inactive); with UACC-62, > 100 µM (inactive); in the assay on HCT-116 it was > 100 µM (inactive); with HCT-15, > 100 µM; in the assay with NCI/ADR-RES it was > 100 µM (inactive); in the assay on NCI-H226 it was > 100 µM (inactive). The GI50 with MDA-MB-435, in the assay with SF-295, in the assay with SK-MEL-5, with IGROV-1, in the assay with ACHN and in the assay with U-251 was > 100 µM (inactive) each time. Also, the GI50 in the assay with HOP-92 is > 100 µM (inactive).
Regarding `O=C(OC1C#CCSCC#C/C=C\1)c1ccc2c(c1)C(=O)c1ccccc1C2=O` (stereo unspecified), the GI50 is > 100 µM (inactive) with CCRF-CEM; 35.8 µM (inactive) in the assay on SK-MEL-2; > 100 µM (inactive) in the assay on OVCAR-3; 23.6 µM (inactive) in the assay on SNB-19; > 100 µM (inactive) in the assay on RPMI-8226; > 100 µM (inactive) in the assay on HCC 2998. The GI50 is 21.6 µM (inactive) with SF-268; 11.9 µM (inactive) in the assay with UACC-62; 36.5 µM (inactive) in the assay with HCT-116; > 100 µM in the assay with HCT-15; 78.9 µM (inactive) with NCI/ADR-RES; 48.8 µM (inactive) in the assay on NCI-H226. For the same compound, the GI50 is > 100 µM (inactive) with MDA-MB-435; 28 µM (inactive) in the assay on SF-295; 87.1 µM (inactive) with SK-MEL-5; 34.8 µM (inactive) in the assay with IGROV-1; 55 µM (inactive) in the assay on ACHN; 16.2 µM (inactive) in the assay on U-251. The GI50 in the assay with HOP-92 is 2.79 µM (inactive).
On to `COc1cc(OC)c(/C=N/N=C(\N)NO)c(OC)c1`, for which the GI50 in the assay with CCRF-CEM, in the assay on SK-MEL-2, with OVCAR-3, in the assay with SNB-19, in the assay with RPMI-8226 and with HCC 2998 was > 100 µM (inactive) throughout. Moreover, the GI50 was > 100 µM (inactive) with SF-268; 25.6 µM (inactive) with UACC-62; > 100 µM (inactive) with 786-0; > 100 µM (inactive) in the assay on HCT-116; 83.9 µM in the assay on HCT-15; > 100 µM (inactive) with NCI/ADR-RES. The GI50 with NCI-H226 was > 100 µM (inactive); with MDA-MB-435, 49.8 µM (inactive); in the assay with SF-295, 33 µM (inactive); with SK-MEL-5 it was > 100 µM (inactive); in the assay with IGROV-1, 90.6 µM (inactive); in the assay on ACHN, 15.6 µM (inactive). Further, the GI50 in the assay on U-251 and with HOP-92 was > 100 µM (inactive) in each case.
In the case of `C[n+]1ccn2c3nc4ccccc4nc3c([O-])c(C#N)c21`, the GI50 in the assay on CCRF-CEM is > 100 µM (inactive); in the assay with SK-MEL-2 it was > 4.65 µM (inactive); with OVCAR-3 it was > 100 µM (inactive); with SNB-19 it was > 100 µM (inactive); in the assay on RPMI-8226, > 100 µM (inactive); in the assay with HCC 2998, > 10 µM (inactive). In addition, the GI50 was > 100 µM (inactive) in the assay with SF-268; > 100 µM (inactive) in the assay with UACC-62; > 48.5 µM (inactive) in the assay on 786-0; > 100 µM (inactive) in the assay with HCT-116; > 10 µM in the assay on HCT-15; > 34.2 µM (inactive) with NCI/ADR-RES. For the same compound, the GI50 was > 100 µM (inactive) in the assay on NCI-H226; > 100 µM (inactive) in the assay with MDA-MB-435; > 100 µM (inactive) in the assay on SF-295; > 4.65 µM (inactive) with SK-MEL-5; > 31.4 µM (inactive) in the assay on IGROV-1; > 100 µM (inactive) with ACHN. Also, the GI50 in the assay on U-251 and with HOP-92 was > 100 µM (inactive) in each case.
